Measured values from article PMC11907390, “Proteome‐Wide Profiling of Olaparib Interactors Using a Biotinylated Photoaffinity Probe” (Chembiochem, 2025).

How the values were obtained:
PARP4 = PARP4 (Homo sapiens, UniProt Q9UKK3); test: competition of probe […] photoaffinity pull-down in HeLa lysate by unlabeled olaparib ([…]), MS; format: cell-based
CDK8 = CDK8 (Homo sapiens, UniProt P49336); test: photoaffinity labeling, streptavidin pull-down and MS in HeLa lysate, enriched over probe […] in two biological replicates; format: cell-based
Chain of CDK8 (P49336 whole entry): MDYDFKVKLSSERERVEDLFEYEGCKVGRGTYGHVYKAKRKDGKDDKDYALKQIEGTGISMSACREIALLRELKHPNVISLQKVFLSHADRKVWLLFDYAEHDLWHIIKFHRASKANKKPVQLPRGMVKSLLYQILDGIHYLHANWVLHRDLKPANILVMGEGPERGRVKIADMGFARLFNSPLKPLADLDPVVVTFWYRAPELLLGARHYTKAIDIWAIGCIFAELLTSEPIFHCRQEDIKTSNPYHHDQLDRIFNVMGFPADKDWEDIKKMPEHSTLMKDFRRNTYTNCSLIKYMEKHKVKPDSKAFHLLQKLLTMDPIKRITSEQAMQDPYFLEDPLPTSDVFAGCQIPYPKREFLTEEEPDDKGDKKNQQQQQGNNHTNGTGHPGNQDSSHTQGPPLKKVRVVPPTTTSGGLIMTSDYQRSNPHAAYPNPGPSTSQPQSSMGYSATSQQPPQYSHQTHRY

PARP1 = PARP1 (Homo sapiens, UniProt P09874); test: PARP1 activity assay (Figure S6); also photoaffinity pull-down from HeLa lysate with MS and Western blot; format: biochemical
Chain of PARP1 (P09874 2-1014): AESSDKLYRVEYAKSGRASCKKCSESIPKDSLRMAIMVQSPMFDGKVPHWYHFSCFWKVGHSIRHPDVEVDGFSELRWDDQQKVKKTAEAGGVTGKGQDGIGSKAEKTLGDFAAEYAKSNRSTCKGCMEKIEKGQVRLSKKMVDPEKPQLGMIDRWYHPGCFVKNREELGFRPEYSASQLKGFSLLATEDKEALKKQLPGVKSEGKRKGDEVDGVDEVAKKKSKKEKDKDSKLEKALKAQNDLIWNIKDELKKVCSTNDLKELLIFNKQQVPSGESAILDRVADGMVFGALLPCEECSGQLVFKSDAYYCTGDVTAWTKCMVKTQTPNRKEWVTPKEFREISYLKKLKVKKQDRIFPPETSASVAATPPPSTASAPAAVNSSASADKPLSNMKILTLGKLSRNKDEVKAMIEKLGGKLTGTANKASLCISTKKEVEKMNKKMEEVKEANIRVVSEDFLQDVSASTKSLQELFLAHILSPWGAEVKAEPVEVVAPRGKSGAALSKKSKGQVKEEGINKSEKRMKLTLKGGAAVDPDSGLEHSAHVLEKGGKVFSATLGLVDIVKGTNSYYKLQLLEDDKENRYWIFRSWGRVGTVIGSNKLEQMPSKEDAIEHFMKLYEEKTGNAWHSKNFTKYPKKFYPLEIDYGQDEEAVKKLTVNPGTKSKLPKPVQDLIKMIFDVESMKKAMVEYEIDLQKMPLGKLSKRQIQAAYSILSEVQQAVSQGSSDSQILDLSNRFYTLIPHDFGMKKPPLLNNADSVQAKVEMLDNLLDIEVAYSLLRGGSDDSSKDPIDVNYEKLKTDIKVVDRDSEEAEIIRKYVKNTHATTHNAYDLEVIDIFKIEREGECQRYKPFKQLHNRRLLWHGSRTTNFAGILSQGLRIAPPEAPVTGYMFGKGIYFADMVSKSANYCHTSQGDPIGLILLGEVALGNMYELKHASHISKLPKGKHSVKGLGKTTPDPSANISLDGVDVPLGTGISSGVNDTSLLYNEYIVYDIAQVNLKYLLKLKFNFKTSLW

Chain of PARP4 (Q9UKK3 whole entry): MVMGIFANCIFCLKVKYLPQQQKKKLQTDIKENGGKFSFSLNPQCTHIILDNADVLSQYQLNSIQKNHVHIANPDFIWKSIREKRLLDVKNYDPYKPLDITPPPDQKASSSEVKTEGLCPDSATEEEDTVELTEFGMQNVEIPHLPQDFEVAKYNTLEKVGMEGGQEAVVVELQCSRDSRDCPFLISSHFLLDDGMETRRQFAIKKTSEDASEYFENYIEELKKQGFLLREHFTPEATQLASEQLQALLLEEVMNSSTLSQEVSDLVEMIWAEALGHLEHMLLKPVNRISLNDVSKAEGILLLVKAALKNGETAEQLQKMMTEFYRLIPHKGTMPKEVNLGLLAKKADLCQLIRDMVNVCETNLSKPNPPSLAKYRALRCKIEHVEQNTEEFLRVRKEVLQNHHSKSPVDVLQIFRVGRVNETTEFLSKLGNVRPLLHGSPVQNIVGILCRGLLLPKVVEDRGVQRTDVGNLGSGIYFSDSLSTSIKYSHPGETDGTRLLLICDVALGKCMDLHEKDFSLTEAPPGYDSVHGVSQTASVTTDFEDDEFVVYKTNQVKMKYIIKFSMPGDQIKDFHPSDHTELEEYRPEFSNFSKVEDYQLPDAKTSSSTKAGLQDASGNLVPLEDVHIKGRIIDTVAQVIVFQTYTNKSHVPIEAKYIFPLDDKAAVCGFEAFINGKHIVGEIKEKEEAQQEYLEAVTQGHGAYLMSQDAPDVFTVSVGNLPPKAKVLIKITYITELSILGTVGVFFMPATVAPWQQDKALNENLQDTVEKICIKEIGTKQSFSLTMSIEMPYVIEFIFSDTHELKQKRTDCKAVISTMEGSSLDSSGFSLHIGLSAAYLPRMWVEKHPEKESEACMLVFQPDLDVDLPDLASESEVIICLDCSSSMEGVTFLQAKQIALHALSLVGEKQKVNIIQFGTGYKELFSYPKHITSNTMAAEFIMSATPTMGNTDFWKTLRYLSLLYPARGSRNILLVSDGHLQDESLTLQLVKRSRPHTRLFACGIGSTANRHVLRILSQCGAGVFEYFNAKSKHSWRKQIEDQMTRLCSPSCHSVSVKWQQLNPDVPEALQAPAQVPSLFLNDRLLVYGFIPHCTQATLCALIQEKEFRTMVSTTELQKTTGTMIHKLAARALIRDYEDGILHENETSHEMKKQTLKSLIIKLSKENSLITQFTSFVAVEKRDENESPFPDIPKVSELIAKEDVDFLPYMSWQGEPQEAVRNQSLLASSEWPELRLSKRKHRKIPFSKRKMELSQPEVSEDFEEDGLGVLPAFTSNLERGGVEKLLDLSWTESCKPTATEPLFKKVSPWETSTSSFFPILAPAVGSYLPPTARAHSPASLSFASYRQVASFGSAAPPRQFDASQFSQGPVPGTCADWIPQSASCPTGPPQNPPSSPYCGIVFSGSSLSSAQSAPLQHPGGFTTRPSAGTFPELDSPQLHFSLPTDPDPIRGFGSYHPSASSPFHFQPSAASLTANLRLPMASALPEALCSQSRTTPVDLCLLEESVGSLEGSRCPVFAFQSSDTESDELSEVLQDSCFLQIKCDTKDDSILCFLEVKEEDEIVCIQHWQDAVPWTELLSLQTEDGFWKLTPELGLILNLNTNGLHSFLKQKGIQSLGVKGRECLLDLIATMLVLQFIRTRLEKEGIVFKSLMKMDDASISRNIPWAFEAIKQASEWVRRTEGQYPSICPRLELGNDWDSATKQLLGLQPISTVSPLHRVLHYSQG

| IC50 (PARP1) | SMILES | competition of probe 4 photoaffinity pull-down in HeLa lysate by unlabeled olapa (PARP4) | photoaffinity labeling, streptavidin pull-down and MS in HeLa lysate, enriched o (CDK8) |
| --- | --- | --- | --- |
|  | O=C(c1cc(Cc2n[nH]c(=O)c3ccccc23)ccc1F)N1CCN(C(=O)C2CC2)CC1 [olaparib] | This concentration‐dependent competition demonstrates the specificity of these interactions for the olaparib pharmacophore |  |
| 3.8 µM | O=C(CCCC[C@@H]1SC[C@@H]2NC(=O)N[C@@H]21)NCCOCCOCCOCCn1cc(CCCCC2(CCC(=O)N3CCN(C(=O)c4cc(Cc5n[nH]c(=O)c6ccccc56)ccc4F)CC3)N=N2)nn1 [compound 4, probe 4] |  | CDK8 and its paralogue CDK19, both transcriptional regulators, were identified in our screening as direct olaparib interactors |
